In patent publication US20060063759A1, “Tricyclic steroid hormone nuclear receptor modulators” (priority 2002, published 2006):

Legend:
[1] = target: T1, human MR (Homo sapiens, UniProt P08235); test: Mineralocorticoid Receptor Binding Assay ([3H]-aldosterone); settings: [3H]-aldosterone binding, human MR expressed in Sf9 cells; read-out: MR Ki
T1 construct: The full length human MR gene is cloned from a human kidney or human brain cDNA library; His tag from the pAcHLT vector (own knowledge); made in house; host or cells: Sf9 insect cells (baculovirus, pAcHLT transfer vector)
T1 sequence (P08235 1-984): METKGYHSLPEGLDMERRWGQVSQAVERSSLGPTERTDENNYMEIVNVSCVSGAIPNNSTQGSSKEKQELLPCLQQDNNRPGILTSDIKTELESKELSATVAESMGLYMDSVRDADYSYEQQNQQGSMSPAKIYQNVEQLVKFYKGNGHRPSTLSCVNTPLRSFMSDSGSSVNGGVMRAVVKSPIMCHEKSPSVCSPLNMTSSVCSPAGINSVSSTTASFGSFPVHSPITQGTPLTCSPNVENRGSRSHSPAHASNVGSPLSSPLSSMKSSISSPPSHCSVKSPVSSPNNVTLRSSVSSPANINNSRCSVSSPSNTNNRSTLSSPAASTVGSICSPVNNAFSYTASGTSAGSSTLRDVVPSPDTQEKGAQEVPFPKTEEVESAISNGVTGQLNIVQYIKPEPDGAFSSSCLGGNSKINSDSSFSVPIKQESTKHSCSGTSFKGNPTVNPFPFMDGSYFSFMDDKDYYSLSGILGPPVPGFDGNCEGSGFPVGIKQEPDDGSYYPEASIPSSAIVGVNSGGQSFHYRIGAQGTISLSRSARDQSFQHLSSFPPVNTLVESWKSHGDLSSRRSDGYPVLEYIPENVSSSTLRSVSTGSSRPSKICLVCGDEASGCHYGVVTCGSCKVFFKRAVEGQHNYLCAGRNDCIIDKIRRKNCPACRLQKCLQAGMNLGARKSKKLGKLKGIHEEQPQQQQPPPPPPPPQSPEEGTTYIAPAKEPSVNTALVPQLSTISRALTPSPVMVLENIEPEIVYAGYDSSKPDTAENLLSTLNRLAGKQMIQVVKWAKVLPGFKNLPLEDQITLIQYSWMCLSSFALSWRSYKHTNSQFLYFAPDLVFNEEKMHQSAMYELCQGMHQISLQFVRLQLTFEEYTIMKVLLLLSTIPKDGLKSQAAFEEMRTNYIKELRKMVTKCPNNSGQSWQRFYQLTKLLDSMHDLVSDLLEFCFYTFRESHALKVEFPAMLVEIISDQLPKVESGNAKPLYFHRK
Method: (§1) All ligands, radioligands, solvents, and reagents employed in the binding assays are readily available from commercial sources, or can be readily synthesized by the ordinarily skilled artisan.
The full length human MR gene is cloned from a human kidney or human brain cDNA library. […] The PCR reaction is performed in a final volume of 50 μl containing about 1 μl of a 50× stock solution of polymerase; about 1 μl of a 50× stock solution of dNTP; about 5 μl of an appropriate PCR buffer; about 1 μl of each primer; about […] of a H. kidney or H. brain cDNA library; and about 36 μl of water. The reaction is allowed to denature for about 30 seconds at 95 degrees Celsius, anneal for about 30 seconds at 55 degrees Celsius, and extend for about 5 minutes at 72 degrees Celsius, the sequence being repeated for a total of about 35 cycles. […] To extract the cDNA product from the agarose gel, the QIAEX II Gel Extraction protocol (QIAGEN, Inc.) is employed according to the manufacturer's instructions. Following extraction, the MR cDNA is cloned into an appropriate cloning vector (Zero Blunt TOPO PCR Cloning Kit Invitrogen, Inc.) and a pAcHLT-baculovinis transfer vector (B.D./Pharminogen), then expressed in SF9 insect cells, essentially according to manufacturer's instructions. Sf9 cells are grown at a scale where gram quantity cell pellets are obtained for subsequent use in the MR binding assay. Harvested cell pellets are lysed by repeated freeze-thaw cycles (about 4) in a suitable lysis buffer then centrifuged at about 1×10^3 G (with the supernatant being saved for future assays).
MR binding assays are performed in a final total volume of about 250 μl containing about 20-25 μg of protein and 0.5 nM of [^3H]-aldosterone plus varying concentrations of test compound or vehicle. The assay binding buffer consists of 30 mM sodium molybdate, 30 mM of TRIS-HCl, 5 mM sodium phosphate, 5 mM sodium pyrophosphate, and about 10% glycerol, pH=7.5.
Incubations are carried out at 4 degrees Celsius with shaking for about 16 hours. 200 μl aliquots of each incubation are filtered onto Millipore HA 0.45 micron 96-well filter plates, pre-moistened with cold 30 mM TRIS-HCl. The filter plates are suctioned dry with vacuum and immediately washed 3× with cold 30 mM TRIS-HCl. The plates are then punched out and the amount of receptor-ligand complex is determined by liquid scintillation counting using 4 ml of Ready Protein Plus™ liquid scintillation cocktail.
IC50 values (defined as the concentration of test compound required to decrease [^3H]-aldosterone binding by 50%/o) are then determined.

[2] = target: T2, glucocorticoid receptor (Homo sapiens, UniProt P04150); test: Glucocorticoid Receptor Binding Assay ([3H]-dexamethasone, A549 cell extract); settings: [3H]-dexamethasone binding, read-out: GR Ki
T2 construct: containing 50-200 ug of A549 cell extract and 1.86 nM [^3H]-dexamethasone; host or cells: A549 human lung epithelial cells (sonicated cell extract)
T2 sequence (P04150 1-777): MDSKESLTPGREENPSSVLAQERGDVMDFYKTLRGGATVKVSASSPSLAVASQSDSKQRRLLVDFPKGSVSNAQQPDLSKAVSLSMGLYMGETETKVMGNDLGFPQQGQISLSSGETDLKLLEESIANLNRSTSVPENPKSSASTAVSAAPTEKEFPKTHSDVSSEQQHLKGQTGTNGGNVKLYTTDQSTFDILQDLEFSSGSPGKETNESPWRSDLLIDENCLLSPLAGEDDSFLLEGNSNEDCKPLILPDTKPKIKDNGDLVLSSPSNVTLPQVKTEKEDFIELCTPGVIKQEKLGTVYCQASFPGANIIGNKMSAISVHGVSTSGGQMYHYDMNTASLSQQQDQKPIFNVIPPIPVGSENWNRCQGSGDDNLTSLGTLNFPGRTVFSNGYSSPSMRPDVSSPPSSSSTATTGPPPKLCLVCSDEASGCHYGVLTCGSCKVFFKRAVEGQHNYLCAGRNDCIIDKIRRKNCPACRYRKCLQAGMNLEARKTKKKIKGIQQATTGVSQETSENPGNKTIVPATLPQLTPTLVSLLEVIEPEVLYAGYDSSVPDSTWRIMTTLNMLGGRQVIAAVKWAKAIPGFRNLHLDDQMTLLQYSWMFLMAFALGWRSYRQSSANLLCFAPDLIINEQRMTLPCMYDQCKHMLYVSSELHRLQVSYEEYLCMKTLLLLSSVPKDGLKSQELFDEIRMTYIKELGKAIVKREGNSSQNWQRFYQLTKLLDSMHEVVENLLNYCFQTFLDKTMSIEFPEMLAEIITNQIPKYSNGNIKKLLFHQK
Method: as §1
A549 human lung epithelial cells (ATCC) are grown at a scale where gram quantity cell pellets are obtained. Harvested cell pellets are washed twice in cold phosphate buffered saline, centrifuged, and resuspended in cold assay binding buffer. The assay binding buffer consists of 10% glycerol, 50 mM Tris-HCl (pH7.2), 75 mM sodium chloride, 1.5 mM magnesium chloride, 1.5 mM EDTA, and 10 mM sodium molybdate. Cell suspensions were lysed via sonication, centrifuged, and the “extract” supernatant is snap frozen and stored at −80 C until needed.
GR binding assays are performed in a final volume of 140 ul containing 50-200 ug of A549 cell extract and 1.86 nM [^3H]-dexamethasone (Amersham) plus varying concentrations of test compound or vehicle. Briefly, assays are prepared at RT in 96-well Fisher 3356 plates, each well containing 100 ul of A549 cell extract, 20 ul of [^3H]-dexamethasone, and 20 ul of test compound/vehicle. Incubations are carried out at 4 degrees Celsius for 16 hours. After incubation, 70 ul of 3× dextran-coated charcoal solution is added to each reaction, mixed, and incubated for 8 minutes at RT. 3×-dextran-coated charcoal solution consists of 250 ml assay binding buffer, 3.75 g Norit A charcoal (Sigma), and 1.25 g dextran T-70 (Amersham). Charcoal/unbound radioligand complexes are removed by centrifugation of the plate and 140 ul of supernatant from each well is transferred to another 96 well Optiplate (Packard Instruments). 200 ul of Microscint-20 scinillant (Packard Instruments) is added to each well and amount of receptor bound radioligand is determined using Packard Instruments TopCount instrument.

Row | SMILES | Ki [1] | Ki [2]
1 | CS(=O)(=O)Nc1ccc(C=C2c3ccccc3CCc3c(Cl)cccc32)cc1 (mixture of isomers) [Example 210, N-[4-(1-Chloro-10,11-dihydro-dibenzo[a,d]cyclohepten-5ylidenemethyl)-phenyl]-methanesulfonamide] | < 500 nM | < 1000 nM
2 | Oc1ccc(C=C2c3ccccc3CCc3c(Cl)cccc32)cc1 (mixture of isomers) [Example 212, 4-(1-Chloro-10,11-dihydro-dibenzo[a,d]cyclohepten-5-ylidenemethyl)-phenol] | < 500 nM | < 1000 nM
3 | CS(=O)(=O)Nc1cccc(C=C2c3ccccc3CCc3ccc(F)cc32)c1 (mixture of isomers) [Example 214, N-[3-(3-Fluoro-10,11-dihydro-dibenzo[a,d]cyclohepten-5-ylidenemethyl)-phenyl]-methanesulfonamide] | < 500 nM | < 500 nM
4 | Oc1cccc(C=C2c3ccccc3CCc3ccc(F)cc32)c1 (mixture of isomers) [Example 215, 3-(3-Fluoro-10,11-dihydro-dibenzo[a,d]cyclohepten-5-ylidenemethyl)-phenol] | < 500 nM | < 500 nM
5 | Nc1cccc(C=C2c3ccccc3CCc3cc(Cl)ccc32)c1 (mixture of isomers) [Example 289, 3-(2-Chloro-10,11-dihydro-dibenzo[a,d]cyclohepten-5-ylidenemethyl)-phenylamine] | < 500 nM | < 1000 nM
6 | O=C1Nc2ccccc2C(=Cc2cccc(Cl)c2)c2ccccc21 (mixture of isomers) [Example 649] | < 500 nM | < 10000 nM
7 | O=C1Nc2ccc(Cl)cc2C(=Cc2cccc(Cl)c2)c2ccccc21 (mixture of isomers) [Example 655] | < 500 nM | < 500 nM
8 | CS(=O)(=O)Nc1cccc(CC2c3ccccc3CCc3cc(Cl)ccc32)c1 (racemic) [Example 207, N-[3-(2-Chloro-10,11-dihydro-5H-dibenzo[a,d]cycloheptenylmethyl)-phenyl]-methanesulfonamide] | < 500 nM | < 500 nM
9 | COc1ccc2c(c1)COc1ccccc1C2C(C)c1cccc(NS(C)(=O)=O)c1 (racemic) [Example 752, N-{3-[1-(8-Methoxy-6,11-dihydro-dibenzo[b,e]oxepin-11-yl)-ethyl]-phenyl}-methanesulfonamide] | < 500 nM | < 500 nM
10 | Oc1cc(C=C2c3ccccc3CCc3c(Cl)cccc32)ccc1Cl [173(a), 2-Chloro-5-(1-chloro-10,11-dihydro-dibenzo[a,d]cyclohepten-5-ylidenemethyl)-phenol] | < 500 nM | < 500 nM
11 | Oc1cc(C=C2c3ccccc3CCc3c(Cl)cccc32)ccc1Cl [173(b), 2-Chloro-5-(1-chloro-10,11-dihydro-dibenzo[a,d]cyclohepten-5-ylidenemethyl)-phenol] | < 500 nM | < 10000 nM
12 | Oc1cccc(C=C2c3ccccc3CCc3cc(Cl)ccc32)c1 [181(a), 3-(2-Chloro-10,11-dihydro-dibenzo[a,d]cyclohepten-5-ylidenemethyl)-phenol] | < 500 nM | < 500 nM
13 | CS(=O)(=O)Nc1cccc(C=C2c3ccccc3CCc3c(F)cccc32)c1 [184(a), N-[3-(1-Fluoro-10,11-dihydro-dibenzo[a,d]cyclohepten-5-ylidenemethyl)-phenyl]-methanesulfonamide] | < 500 nM | < 500 nM
14 | Oc1cccc(C=C2c3ccccc3CCc3c(F)cccc32)c1 [185(a), 3-(1-Fluoro-10,11-dihydro-dibenzo[a,d]cyclohepten-5-ylidenemethyl)-phenol] | < 500 nM | < 500 nM
15 | Oc1cccc(C=C2c3ccccc3CCc3c(F)cccc32)c1 [185(b), 3-(1-Fluoro-10,11-dihydro-dibenzo[a,d]cyclohepten-5-ylidenemethyl)-phenol] | < 500 nM | < 1000 nM
16 | CS(=O)(=O)Nc1cccc(C=C2c3ccccc3CCc3ccc(Cl)cc32)c1 [188(a), N-[3-(3-Chloro-10,11-dihydro-dibenzo[a,d]cyclohepten-5-ylidenemethyl)-phenyl]-methanesulfonamide] | < 500 nM | < 500 nM
